Data from patent US20180353483A1, “PHARMACEUTICAL COMPOSITIONS AND METHODS FOR INDOLEAMINE, 2, 3-DIOXYGENASE INHIBITION AND INDICATIONS THEREFOR” (Incyte Corporation, priority 2015, published 2018).
Read-outs that look alike come from different tables or passages of the source.

What was measured:
[1] = Dose-escalation study of Compound 1 pharmacokinetics in subjects with advanced malignancies (tablets of Formulations 1 and/or 3, fasted; food effect cohort); assay type: in vivo, human; conditions: for AUC: read-out: AUC0-τ
Excerpt: Thus, Cmax, Cmin and Tmax were taken directly from the observed plasma concentration data or imputed in some cases. The terminal-phase disposition rate constant (λz) was estimated using a log-linear regression of the concentration data in the terminal disposition phase, and t1/2 was estimated as ln(2)/λz. AUC0-t and AUC0-τ was estimated using the linear trapezoidal rule for increasing concentrations and the log-trapezoidal rule for decreasing concentrations. At the PK steady-state, the apparent oral-dose clearance, CL/F, was estimated as Dose/AUC0-τ, and Vz/F was estimated as Dose/[AUC0-τ*λz].
The log-transformed pharmacokinetic parameters were compared among the BID dose groups using a 1-factor ANOVA with the factor for dose. Dose-dependent exposure parameters (Cmax and AUC) were normalized to a common dose before statistical comparisons were made.
The oral bioavailability (F) and systemic clearance (CL) were estimated. […] This method of estimation assumes near complete oral absorption and the liver being the primary organ for drug clearance. […] The above equation was modified to incorporate the term of Fa to accommodate an incomplete absorption: CL=(QH*Fa*CL/F)/(QH+Fa*CL/F).

[2] = Preclinical PK, renal excretion after IV dose, mice; assay type: in vivo
[3] = Preclinical PK, cynomolgus monkeys; assay type: in vivo
[4] = Preclinical PK, beagle dogs; assay type: in vivo
[5] = Unbound fraction in plasma; assay type: in vitro ADME
[6] = male, dog, in vivo, 500 mg/kg/day
[7] = human, plasma, oral, 50 mg, 50 mg QD, steady state, geometric mean
[8] = human, plasma, oral, 100 mg, 100 mg BID, steady state, geometric mean
[9] = human, plasma, oral, 300 mg, 300 mg BID, steady state, geometric mean
[10] = human, plasma, oral, 400 mg, 400 mg BID, steady state, geometric mean
[11] = human, plasma, oral, 500 mg, 500 mg BID, steady state, geometric mean
[12] = human, plasma, oral, 600 mg, 600 mg BID, steady state, geometric mean
[13] = human, plasma, oral, 700 mg, 700 mg BID, steady state, geometric mean

NS(=O)(=O)NCCNc1nonc1C(=NO)Nc1ccc(F)c(Br)c1 [Compound 1, 4-({2-[(aminosulfonyl)amino]ethyl}amino)-N-(3-bromo-4-fluorophenyl)-N′-hydroxy-1,2,5-oxadiazole-3-carboximidamide]
increase of mean AUC0-τ by systemic accumulation ([1]; BID dosing): 33%
increase of mean Cmax by systemic accumulation ([1]; BID dosing): 16%
oral-dose clearance CL/F ([1]; geometric mean, pooled 42 subjects, Cycle 1 Day 15): 55.3 L/h
systemic clearance in percent hepatic blood flow ([1]; human, estimated): 29%
fraction of oral dose absorbed (Fa) ([1]; human, estimated as mean of cynomolgus monkey and beagle dog): 64%
AUC(0-t) ([1]; human, plasma, oral, 50 mg, 50 mg BID, steady state, geometric mean, read-out: AUC0-t): 2.58 µM·h
AUC ([1]; human, plasma, oral, 50 mg, 50 mg BID, steady state, geometric mean): 2.83 µM·h
half-life ([1]; human, plasma, oral, 50 mg, 50 mg BID, steady state, geometric mean, read-out: t1/2 (converted)): 2.3 h
AUC(0-t) ([1]; human, plasma, oral, 50 mg, 50 mg BID, steady state, mean ± SD, read-out: AUC0-t): 2.74 ± 1.08 µM·h
Cmax [1, 7]: 0.365 µM
AUC(0-t) ([1]; human, plasma, oral, 50 mg, 50 mg QD, steady state, geometric mean, read-out: AUC0-t): 1.37 µM·h
AUC [1, 7]: 1.56 µM·h
half-life ([1]; human, plasma, oral, 50 mg, 50 mg QD, steady state, geometric mean, read-out: t1/2 (converted)): 2.4 h
Cmax [1, 8]: 1.19 µM
AUC(0-t) ([1]; human, plasma, oral, 100 mg, 100 mg BID, steady state, geometric mean, read-out: AUC0-t): 4.97 µM·h
AUC [1, 8]: 5.38 µM·h
half-life ([1]; human, plasma, oral, 100 mg, 100 mg BID, steady state, geometric mean, read-out: t1/2 (converted)): 3.2 h
AUC(0-t) ([1]; human, plasma, oral, 100 mg, 100 mg BID, steady state, mean ± SD, read-out: AUC0-t): 5.32 ± 2.16 µM·h
Cmax [1, 9]: 2.44 µM
AUC(0-t) ([1]; human, plasma, oral, 300 mg, 300 mg BID, steady state, geometric mean, read-out: AUC0-t): 8.88 µM·h
AUC [1, 9]: 9.75 µM·h
AUC(0-t) ([1]; human, plasma, oral, 300 mg, 300 mg BID, steady state, mean ± SD, read-out: AUC0-t): 8.92 ± 0.841 µM·h
Cmax [1, 10]: 3.88 µM
AUC(0-t) ([1]; human, plasma, oral, 400 mg, 400 mg BID, steady state, geometric mean, read-out: AUC0-t): 15 µM·h
AUC [1, 10]: 17.6 µM·h
half-life ([1]; human, plasma, oral, 400 mg, 400 mg BID, steady state, geometric mean, read-out: t1/2 (converted)): 2.6 h
AUC(0-t) ([1]; human, plasma, oral, 400 mg, 400 mg BID, steady state, mean ± SD, read-out: AUC0-t): 16.7 ± 6.79 µM·h
Cmax [1, 11]: 4.48 µM
AUC(0-t) ([1]; human, plasma, oral, 500 mg, 500 mg BID, steady state, geometric mean, read-out: AUC0-t): 17.3 µM·h
AUC [1, 11]: 19.7 µM·h
half-life ([1]; human, plasma, oral, 500 mg, 500 mg BID, steady state, geometric mean, read-out: t1/2 (converted)): 2.4 h
AUC(0-t) ([1]; human, plasma, oral, 500 mg, 500 mg BID, steady state, mean ± SD, read-out: AUC0-t): 18.2 ± 6.46 µM·h
Cmax ([1]; human, plasma, oral, 600 mg, 600 mg BID, Fed (high-fat meal), geometric mean): 4.03 µM
AUC(0-t) ([1]; human, plasma, oral, 600 mg, 600 mg BID, Fed (high-fat meal), geometric mean, read-out: AUC0-12 h): 25.8 µM·h
Cmax ([1]; human, plasma, oral, 600 mg, 600 mg BID, Fed (high-fat meal), mean ± SD): 4.53 ± 2.52 µM
AUC(0-t) ([1]; human, plasma, oral, 600 mg, 600 mg BID, Fed (high-fat meal), mean ± SD, read-out: AUC0-12 h): 29.5 ± 18.2 µM·h
tmax ([1]; human, plasma, oral, 600 mg, 600 mg BID, Fed (high-fat meal), median, read-out: Tmax): 6 h
Cmax ([1]; human, plasma, oral, 600 mg, 600 mg BID, food effect cohort, Fasted, geometric mean): 4.52 µM
AUC(0-t) ([1]; human, plasma, oral, 600 mg, 600 mg BID, food effect cohort, Fasted, geometric mean, read-out: AUC0-12 h): 21.6 µM·h
Cmax ([1]; human, plasma, oral, 600 mg, 600 mg BID, food effect cohort, Fasted, mean ± SD): 4.82 ± 2.16 µM
AUC(0-t) ([1]; human, plasma, oral, 600 mg, 600 mg BID, food effect cohort, Fasted, mean ± SD, read-out: AUC0-12 h): 22.9 ± 9.99 µM·h
Cmax [1, 12]: 4.52 µM
AUC(0-t) ([1]; human, plasma, oral, 600 mg, 600 mg BID, steady state, geometric mean, read-out: AUC0-t): 18.3 µM·h
AUC [1, 12]: 21.6 µM·h
half-life ([1]; human, plasma, oral, 600 mg, 600 mg BID, steady state, geometric mean, read-out: t1/2 (converted)): 3.2 h
AUC(0-t) ([1]; human, plasma, oral, 600 mg, 600 mg BID, steady state, mean ± SD, read-out: AUC0-t): 19.5 ± 8.4 µM·h
tmax ([1]; human, plasma, oral, 600 mg, 600 mg BID, steady state, read-out: prolongation of Tmax by a high-fat meal): 4 h
Cmax [1, 13]: 6 µM
AUC(0-t) ([1]; human, plasma, oral, 700 mg, 700 mg BID, steady state, geometric mean, read-out: AUC0-t): 29.6 µM·h
AUC [1, 13]: 33.9 µM·h
half-life ([1]; human, plasma, oral, 700 mg, 700 mg BID, steady state, geometric mean, read-out: t1/2 (converted)): 2.9 h
AUC(0-t) ([1]; human, plasma, oral, 700 mg, 700 mg BID, steady state, mean ± SD, read-out: AUC0-t): 30.8 ± 10.5 µM·h
half-life ([1]; human, plasma, oral, from accumulation ratio based on AUC, read-out: effective t1/2 (converted)): ~6 h
clearance ([1]; human, plasma, oral, read-out: mean systemic clearance CL (converted)): 417 mL/min
bioavailability ([1]; plasma, oral, human, estimated, CL/CLoral, read-out: mean absolute bioavailability (F)): 45%
systemic accumulation ([1]; repeat 50 mg QD administration): no evidence of systemic accumulation
day on which steady-state of PK was observed ([1]; repeat BID dosing, judged by trough plasma concentrations): ≤ 8 days
effective half-life ([1]; suggested by accumulation of Cmax and AUC0-τ, BID dosing): 4 to 6 h
renal excretion of unchanged compound [2]: less than 3 % of IV dose
systemic clearance in percent hepatic blood flow ([3]; cynomolgus monkey): 31%
fraction of oral dose absorbed (Fa) ([3]; cynomolgus monkeys, estimated from preclinical PK studies (not shown)): 48%
renal excretion of unchanged compound ([3]; monkeys): less than 3 % of IV dose
systemic clearance in percent hepatic blood flow ([4]; beagle dog): 26%
fraction of oral dose absorbed (Fa) ([4]; beagle dogs, estimated from preclinical PK studies (not shown)): 81%
renal excretion of unchanged compound ([4]; dogs): less than 3 % of IV dose
unbound fraction in plasma [5]: 3.1%
NOAEL unbound AUC0-24h [6]: 7.9 µM·h
